According to paper PMC7522027 (Disease Models & Mechanisms, 2020):

Assays:
ACV-RL1 (ALK1) = target: T1, ACV-RL1 (ALK1) (Homo sapiens, UniProt P37023); assay: radiometric protein kinase assay, ALK1; type: biochemical; details: [ATP] = 1 μM; Fig. 7D
T1 construct: purchased ProQinase GmbH (Freiburg, Germany); host or cells: bacteria (so in the source)

BMPR1A (ALK3) = target: T2, BMPR1A (ALK3) (Homo sapiens, UniProt P36894); assay: radiometric protein kinase assay, ALK3; type: biochemical; details: [ATP] = 0.3μM; Fig. 7F
T2 construct: purchased ProQinase GmbH (Freiburg, Germany); host or cells: bacteria (so in the source)

zebrafish embryos = assay: zebrafish embryo assay (morphological developmental defects at 48 hpf); type: in vivo, zebrafish (Danio rerio)
Procedure: Zebrafish eggs obtained from family crosses of Tuebingen long fin zebrafish lines were used to assess the biological activity of all samples. The eggs were washed with fresh E3 medium and subsequently divided over 24-well plates, with ten embryos per well in 1000 µl E3 medium. Samples were added to the wells at various times as mentioned in the figures and legends. At 48 hpf, the zebrafish embryos were inspected for morphological developmental defects. Embryos displaying morphological defects were imaged using a Leica MZFLIII microscope equipped with a Leica DFC320 camera or Leica M165 FC microscope equipped with a Leica DMC5400 camera.

caAlk2 = assay: rescue of caAlk2 mRNA-induced developmental defects in zebrafish embryos; type: in vivo; details: examined at 48 hpf
Procedure: The pCS2+ plasmid encoding caAlk2 with a glutamine to aspartic acid substitution at position 204 was kindly donated by Jeroen Bakkers ([Smith et al., 2009]). The DNA sequences of the inserts in plasmid constructs were verified. Both plasmids were digested with NotI and mRNA was generated with SP6 RNA polymerase using a mMessage mMachine kit (Ambion). The mRNA was purified through phenol/isoamylalcohol/chloroform extraction. Zebrafish embryos were injected into the yolk at the one-cell stage with ∼1 nl of either 50 ng/µl GFP mRNA or a cocktail containing 10 ng/µl caAlk2 and 50 ng/µl GFP mRNA. […] Next, embryos were selected for fluorescence at 24 hpf and examined at 48 hpf. The phenotypes were categorized into three groups: no head; head, no eyes; head and eyes. Finally, the bar graph was generated using Prism 8.3.0 for Windows (GraphPad, San Diego, CA, USA). The presented data are a combination of two repeats of the experiment.

[1] = target: T3, anaplastic lymphoma kinase (ALK wt, GST-HIS-tag) (Homo sapiens, UniProt Q9UM73); assay: radiometric protein kinase assay, anaplastic lymphoma kinase; type: biochemical; details: Fig. 7A
T3 construct: GST; His; purchased ProQinase GmbH (Freiburg, Germany); host or cells: bacteria (so in the source)

TGFB-R1 (ALK5) = target: T4, TGFB-R1 (ALK5) (Homo sapiens, UniProt P36897); assay: radiometric protein kinase assay, ALK5; type: biochemical; details: [ATP] = 1 μM; Fig. 7K
T4 construct: purchased ProQinase GmbH (Freiburg, Germany); host or cells: bacteria (so in the source)
T4 sequence (P36897 34-503): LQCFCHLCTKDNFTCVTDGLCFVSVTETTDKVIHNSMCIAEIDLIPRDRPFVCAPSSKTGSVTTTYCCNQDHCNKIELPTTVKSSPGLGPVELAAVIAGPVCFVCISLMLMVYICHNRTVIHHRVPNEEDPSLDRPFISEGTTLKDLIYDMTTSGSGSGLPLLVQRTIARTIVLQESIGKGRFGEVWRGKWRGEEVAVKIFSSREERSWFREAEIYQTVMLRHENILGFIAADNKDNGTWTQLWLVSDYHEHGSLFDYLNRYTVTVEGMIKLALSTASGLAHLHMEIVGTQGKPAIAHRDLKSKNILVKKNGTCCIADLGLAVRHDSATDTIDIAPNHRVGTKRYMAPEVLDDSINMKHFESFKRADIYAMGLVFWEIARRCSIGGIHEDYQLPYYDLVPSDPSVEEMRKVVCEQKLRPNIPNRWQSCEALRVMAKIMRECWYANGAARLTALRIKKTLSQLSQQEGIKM

BMPR1B (ALK6) = target: T5, BMPR1B (ALK6) (Homo sapiens, UniProt O00238); assay: radiometric protein kinase assay, ALK6; type: biochemical; details: [ATP] = 3 μM; Fig. 7G
T5 construct: purchased ProQinase GmbH (Freiburg, Germany); host or cells: bacteria (so in the source)

[2] = test system: MEK and anaplastic lymphoma kinase (ALK) versus ALK serine/threonine kinases; assay: kinase panel: sensitivity of control kinases relative to ALK serine/threonine kinases; type: biochemical, human; details: ratio of IC50 values
Procedure: IC50 values were calculated using Prism 5.04 for Windows (GraphPad, San Diego, CA, USA; www.graphpad.com). The mathematical model used was ‘Sigmoidal response (variable slope)’ with parameters ‘top’ fixed at 100% and ‘bottom’ at 0%. The fitting method used was a least-squares fit.

[3] = test system: BMP2-induced SMAD1/5 phosphorylation; assay: BMP2-induced SMAD1/5 phosphorylation in HepG2 cells (immunoblot); type: cell-based, human; details: HepG2, BMP2 50 ng/ml; high concentrations (range 100 nM to 10 µM)
Procedure: For BMP stimulation, the HepG2 cells (∼50% confluency) were starved on serum-free medium for 6 h. Subsequently, prior to the addition of BMP ligands, the cells were treated with compound for 30 min. Next, the cells were stimulated with BMP2 (50 ng/ml) or BMP6 (50 ng/ml) for 45 min. The cells were then washed with PBS and lysed in Laemmli sample buffer for western blot analysis.
(§1) HepG2 or HEK 293T cells were lysed in Laemmli sample buffer. Proteins were separated by sodium dodecyl sulfate polyacrylamide gel electrophoresis (SDS-PAGE) and transferred onto […] polyvinylidene difluoride (PVDF) membrane (IPVH00010, Merck Millipore). Membranes were blocked using 5% non-fat dry milk in Tris-buffered saline with 0.1% Tween 20 (655204, Merck Millipore) and probed with the respective primary and secondary antibodies. The signal was detected using Clarity™ Western ECL Substrate (1705060, Bio-Rad) and ChemiDoc Imaging System (17001402, Bio-Rad). The antibodies used for immunoblotting were raised against the following proteins: phospho-SMAD1/5/8 ([Persson et al., 1998]; 1:1000), SMAD1 (Cell Signaling Technology, #6944; 1:1000), GAPDH (Merck Millipore, #G8795; 1:5000) and hemagglutinin (HA; Roche, #12CA5; 1:1000).

caALK6 = assay: caALK6-induced SMAD1/5 phosphorylation in HEK 293T cells; type: cell-based, human; details: cercosporamide 1-10 µM, LDN193189 200 nM
Text: as §1
For experiments with the caALK type I receptor constructs, HEK 293T cells were seeded in 24-well plates at ∼90% confluency and transfected with the DNA expression constructs in the presence of PEI. Thirty hours after transfection, the cells were added to serum-starved medium and treated with compounds for 16 h (overnight). Subsequently, the cells were washed with PBS and lysed in Laemmli sample buffer. […]

T1 sequence (P37023 22-503): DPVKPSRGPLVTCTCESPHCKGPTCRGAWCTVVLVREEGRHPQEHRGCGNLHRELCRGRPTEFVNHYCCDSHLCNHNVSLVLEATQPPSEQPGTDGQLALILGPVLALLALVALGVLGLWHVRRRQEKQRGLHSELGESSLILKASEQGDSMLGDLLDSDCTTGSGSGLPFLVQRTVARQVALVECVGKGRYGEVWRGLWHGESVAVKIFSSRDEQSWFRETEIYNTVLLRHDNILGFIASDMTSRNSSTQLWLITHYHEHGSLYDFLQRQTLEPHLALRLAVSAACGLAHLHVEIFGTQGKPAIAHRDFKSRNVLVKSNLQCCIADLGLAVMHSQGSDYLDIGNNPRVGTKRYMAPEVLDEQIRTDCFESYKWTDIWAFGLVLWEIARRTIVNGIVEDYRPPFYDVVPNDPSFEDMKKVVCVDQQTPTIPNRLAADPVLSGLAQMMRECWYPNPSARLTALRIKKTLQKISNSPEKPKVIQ
T3 sequence (Q9UM73 19-1620): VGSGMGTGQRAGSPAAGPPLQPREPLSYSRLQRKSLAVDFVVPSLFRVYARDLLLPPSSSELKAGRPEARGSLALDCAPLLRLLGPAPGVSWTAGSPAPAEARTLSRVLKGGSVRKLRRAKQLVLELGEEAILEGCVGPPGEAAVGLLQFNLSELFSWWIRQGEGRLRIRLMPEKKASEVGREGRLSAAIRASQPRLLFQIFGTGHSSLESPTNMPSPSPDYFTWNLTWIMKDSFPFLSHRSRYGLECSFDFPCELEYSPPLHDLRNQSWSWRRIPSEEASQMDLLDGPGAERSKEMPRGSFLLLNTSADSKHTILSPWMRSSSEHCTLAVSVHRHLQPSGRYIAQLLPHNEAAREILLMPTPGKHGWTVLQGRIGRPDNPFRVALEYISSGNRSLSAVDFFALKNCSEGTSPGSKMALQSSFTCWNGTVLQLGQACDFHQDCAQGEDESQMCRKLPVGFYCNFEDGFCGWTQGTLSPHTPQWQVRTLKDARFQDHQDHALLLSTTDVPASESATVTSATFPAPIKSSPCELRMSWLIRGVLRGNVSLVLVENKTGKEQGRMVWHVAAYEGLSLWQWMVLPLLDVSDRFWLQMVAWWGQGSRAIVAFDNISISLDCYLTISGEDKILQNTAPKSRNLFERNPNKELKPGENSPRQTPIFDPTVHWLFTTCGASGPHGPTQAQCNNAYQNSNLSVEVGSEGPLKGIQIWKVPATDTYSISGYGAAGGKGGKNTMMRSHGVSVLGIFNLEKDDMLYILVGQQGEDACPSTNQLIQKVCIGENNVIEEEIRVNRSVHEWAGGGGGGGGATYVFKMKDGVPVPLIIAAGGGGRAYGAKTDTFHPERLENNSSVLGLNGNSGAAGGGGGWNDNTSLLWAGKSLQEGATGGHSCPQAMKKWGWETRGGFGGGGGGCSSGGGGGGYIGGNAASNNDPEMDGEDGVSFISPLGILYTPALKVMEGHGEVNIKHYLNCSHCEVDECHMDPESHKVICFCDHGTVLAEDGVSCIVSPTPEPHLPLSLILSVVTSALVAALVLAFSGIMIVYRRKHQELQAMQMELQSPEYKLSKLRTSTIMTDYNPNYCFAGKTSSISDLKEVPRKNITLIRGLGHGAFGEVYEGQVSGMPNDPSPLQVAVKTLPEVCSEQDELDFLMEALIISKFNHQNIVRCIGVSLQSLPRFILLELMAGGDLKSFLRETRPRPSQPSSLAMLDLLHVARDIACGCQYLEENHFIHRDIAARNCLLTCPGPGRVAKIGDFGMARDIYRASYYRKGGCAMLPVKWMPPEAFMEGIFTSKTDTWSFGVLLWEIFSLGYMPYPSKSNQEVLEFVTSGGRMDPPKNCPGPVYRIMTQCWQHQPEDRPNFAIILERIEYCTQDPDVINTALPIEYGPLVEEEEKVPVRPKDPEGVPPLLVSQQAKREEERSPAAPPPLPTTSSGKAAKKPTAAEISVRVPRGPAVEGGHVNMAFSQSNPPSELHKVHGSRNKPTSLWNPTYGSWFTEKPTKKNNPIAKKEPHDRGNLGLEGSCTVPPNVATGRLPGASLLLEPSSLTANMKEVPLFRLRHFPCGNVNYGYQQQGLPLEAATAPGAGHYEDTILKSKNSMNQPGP
T2 sequence (P36894 24-532): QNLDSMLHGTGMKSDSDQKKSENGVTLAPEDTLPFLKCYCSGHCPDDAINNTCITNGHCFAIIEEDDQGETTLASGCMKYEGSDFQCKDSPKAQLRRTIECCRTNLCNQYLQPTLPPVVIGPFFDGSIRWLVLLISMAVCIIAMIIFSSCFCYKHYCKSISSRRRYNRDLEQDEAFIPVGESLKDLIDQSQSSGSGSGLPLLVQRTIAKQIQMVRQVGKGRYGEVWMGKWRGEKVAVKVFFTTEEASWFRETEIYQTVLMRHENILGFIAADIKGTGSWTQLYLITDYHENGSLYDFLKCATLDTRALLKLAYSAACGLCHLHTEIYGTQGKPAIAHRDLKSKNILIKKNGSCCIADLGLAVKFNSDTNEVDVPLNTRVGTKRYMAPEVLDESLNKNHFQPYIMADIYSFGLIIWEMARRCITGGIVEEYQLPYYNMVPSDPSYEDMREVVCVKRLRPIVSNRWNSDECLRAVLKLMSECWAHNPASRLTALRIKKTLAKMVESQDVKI
T5 sequence (O00238 14-502): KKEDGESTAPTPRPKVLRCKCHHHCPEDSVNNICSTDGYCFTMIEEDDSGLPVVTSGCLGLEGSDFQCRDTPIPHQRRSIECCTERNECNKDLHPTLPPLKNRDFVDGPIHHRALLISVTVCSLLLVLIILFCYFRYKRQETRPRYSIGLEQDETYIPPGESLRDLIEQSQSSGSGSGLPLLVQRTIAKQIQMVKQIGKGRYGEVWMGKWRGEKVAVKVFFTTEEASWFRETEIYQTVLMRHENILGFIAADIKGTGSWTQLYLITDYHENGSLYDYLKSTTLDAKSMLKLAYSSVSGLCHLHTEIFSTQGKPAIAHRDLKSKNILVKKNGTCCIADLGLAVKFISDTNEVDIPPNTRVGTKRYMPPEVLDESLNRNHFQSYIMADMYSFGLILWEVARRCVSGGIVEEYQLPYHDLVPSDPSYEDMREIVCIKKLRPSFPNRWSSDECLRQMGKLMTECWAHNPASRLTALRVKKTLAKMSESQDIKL

CC(=O)C1=C(O)C=C2Oc3c(C(N)=O)c(O)cc(O)c3[C@]2(C)C1=O [cercosporamide, Cercosporamide]
IC50 (ACV-RL1 (ALK1)): 3.3 µM | IC50 (BMPR1A (ALK3)): 360 nM | phenotype, combination treatment (zebrafish embryos; 50 nM cercosporamide in combination with 5 µM LDN-193189, from 7 hpf onwards): partial loss of the ventral fin | developmental defects, single treatment (zebrafish embryos; 50 nM, from 7 hpf onwards): did not induce detectable developmental defects | phenotype at 48 hpf (zebrafish embryos; 100 nM, treatment from 7 hpf): abolished the effect | phenotype at 48 hpf (zebrafish embryos; 200 nM, treatment started at 2 hpf): severely truncated phenotype | phenotype at 48 hpf (zebrafish embryos; 200 nM, treatment started at 8 hpf): mild phenotype | phenotype at 48 hpf (zebrafish embryos; 1.5 µM, treatment from 7 hpf): severely truncated phenotype | phenotype at 48 hpf (zebrafish embryos; 3 µM, treatment from 7 hpf): severely truncated phenotype | lethal concentration in zebrafish embryos (zebrafish embryos; treatment from 7 hpf, continuous until 48 hpf): above 3 µM | caAlk2-injected embryos that developed a head with eyes (caAlk2; 100 nM from 2 hpf onwards): 58% | caAlk2-injected embryos that developed a head with eyes (caAlk2; 200 nM from 2 hpf onwards): 86% | IC50 [1]: 10000 nM | IC50 (TGFB-R1 (ALK5)): 290 nM | IC50 (BMPR1B (ALK6)): 390 nM | MEK and tyrosine kinase ALK less sensitive than the ALK serine/threonine kinases [2]: 7- to 67 fold | effect on BMP2-induced SMAD1/5 phosphorylation [3]: capable of blocking SMAD1/5 phosphorylation | effect on caALK6-induced SMAD1/5 phosphorylation (caALK6): inhibited SMAD1/5 phosphorylation
